Measured values: patent publication US20200299671A1, “IMMOBILIZED MULTI-ENZYMATIC HALOGENATION SYSTEM” (priority 2019, published 2020)

What was measured:
PltM [1] = target: T1, PltM (Pseudomonas protegens, UniProt Q4KCZ3); assay type: biochemical; conditions: optimized conditions; for preference for bromination versus iodination: time course
Experimental: To increase production of halogenated molecules and decrease the amount of NADPH required, the above in vitro assay was optimized by using an additional enzyme, glucose dehydrogenase (GDH). […] Conversion of the substrate to halogenated products was monitored by HPLC at λ=275-320 nm, where the absorbance of molecules is not affected by halogenation, and quantified as fraction of reaction species (%).
The time course experiments were performed in duplicate. […] The in vitro analysis of K87A mutant was performed overnight in 100 μL reaction mixture by using the compound 11 as a substrate. Wild-type PltM was used as a positive control, and no enzyme reaction was used as a negative control. In all above reactions, the compounds were extracted with EtOAc (4×100 μL) and dried under gentle air flow.
To determine the halogenation preference, the kinetic parameters were obtained by the global nonlinear regression analysis of all reaction species using DynaFit software for the following halogenation mechanism:
where E, S, P1, P2 are enzyme, substrate, mono- and dihalogenated product, respectively.

PltM [2] = target: T1, PltM; assay: Optimized in vitro PltM halogenation assay (PltM, SsuE, GDH), overnight overall yield by HPLC; assay type: biochemical; conditions: for % overall conversion (trial 1) / % overall conversion (trial 2): optimized chlorination reaction, sum of all chlorinated products; for % overall conversion (trial 1): first of two independent reactions; for % overall conversion (trial 2): second of two independent reactions; for conversion upon overnight reaction: optimized conditions
Experimental: To increase production of halogenated molecules and decrease the amount of NADPH required, the above in vitro assay was optimized by using an additional enzyme, glucose dehydrogenase (GDH). […] The overall yield of halogenation products was determined for reactions run overnight for several substrates (Table 8). Conversion of the substrate to halogenated products was monitored by HPLC at λ=275-320 nm, where the absorbance of molecules is not affected by halogenation, and quantified as fraction of reaction species (%).
The time course experiments were performed in duplicate. Compound 1 was unstable under these optimized conditions, and it was not tested. The in vitro analysis of K87A mutant was performed overnight in 100 μL reaction mixture by using the compound 11 as a substrate. Wild-type PltM was used as a positive control, and no enzyme reaction was used as a negative control. In all above reactions, the compounds were extracted with EtOAc (4×100 μL) and dried under gentle air flow.
(§1) The halogenation reaction products were analyzed by HPLC or LC-MS by injecting 10 μL of each sample. The compounds were separated by Reversed-phase HPLC at the flow rate of 0.2 mL/min by using the following program: eluent A=H2O; eluent B=MeCN; gradient=2% B for 5 min, increase to 100% B over a 30 min period, stay at 100% B for 9 min, decrease to 2% B over a 1 min period, and re-equilibrate the column at 2% B for 30 min.
(§2) For HPLC analysis, the molecules were observed by absorbance at λ=275 nm as described above. As necessary, the following mass spectrometer was operated in negative and positive modes with the following parameters: For negative mode, mass range, 80-600 m/z in profile mode; temperature, 550° C. and ion spray voltage floating, −4500 V, and for positive mode, mass range, 80-600 m/z in profile mode; temperature, 550° C. and ion spray voltage floating, 4500 V. The presence of each compound was analyzed by extracted ion chromatograph (XIC) with the expected mass ±0.05 Da for Assay 1 and Assay 2 and ±0.005 Da for Assay 3 (FIGS. 2A-C, 8-13, and 17-37; Tables 3-4 and 7).

PltM [3] = target: T1, PltM; assay: In vitro PltM halogenation assay with a single halide salt, substrate profile (Assay 1a-1d), LC-MS; assay type: biochemical; conditions: for iodination by PltM (products identified by LC-MS): NaI as halide source (Assay 1d); for chlorination by PltM (products identified by LC-MS): NaCl as halide source (Assay 1b)
Experimental: The halogenation assays were carried out similarly to a recently described procedure. For substrate profile determination (Assay 1), 100 μL reactions were carried out in 30 mM sodium phosphate pH 7.4. As a halide source, 200 mM of either NaF (Assay 1a), NaCl (Assay 1b), NaBr (Assay 1c), or NaI (Assay 1d) was used. To ensure that PltM is incapable of fluorinating, an additional 200 μL reaction with 300 mM NaF was run. A 200 μL reaction with 400 mM NaBr was also run to ensure no additional bromination reaction occurred. Each reaction also contained a specified substrate (0.5 mM), FAD (0.2 mM), NADPH (5 mM), PltM (5.5 μM), and SsuE (5.0 μM). The reactions were initiated by adding NADPH under N2. The reaction tubes were tightly closed to avoid contact with air. The reaction mixtures were incubated at 25° C. for 3 h prior to extraction with EtOAc (4×100 μL). The organic layer was dried by a gentle flow of air, and the residue was dissolved in MeOH to prepare 1-10 μg/mL samples for LC-MS analysis.
as §1, §2

[4] = substrate: Oc1cccc(O)c1; assay: purified protein, by the assay type; assay type: biochemical; conditions: pH 7.4
[5] = substrate: OCc1cc(O)cc(O)c1; assay: purified protein, by the assay type; assay type: biochemical; conditions: pH 7.4
[6] = substrate: OCc1cc(O)cc(O)c1Cl; assay: purified protein, by the assay type; assay type: biochemical; conditions: other: halogen Cl; labelled species converted to next chlorinated product (for 16: to Cl-16a); pH 7.4
[7] = substrate: Oc1ccc(Cl)c(O)c1; assay: purified protein, by the assay type; conditions: other: halogen Cl; labelled species converted to next chlorinated product (for 16: to Cl-16a); pH 7.4
[8] = substrate: Nc1cccc(O)c1; assay: purified protein, by the assay type; conditions: pH 7.4
[9] = other: halogen Br, labelled species converted to next brominated product (for 16: to Br-16a)
[10] = other: halogen Cl, labelled species converted to next chlorinated product (for 16: to Cl-16a)
[11] = other: halogen Br, 16/Br-16b (second mono-brominated product)
[12] = other: halogen Cl, 16/Cl-16b (second mono-chlorinated product)

Oc1cccc(O)c1 [Compound 3]
dibromination by PltM (PltM [1]): dibrominated
preference for bromination versus iodination (PltM [1]): preference for bromination
% overall conversion (trial 1) (PltM [2]; overnight): 100, 100%
% overall conversion (trial 2) (PltM [2]; overnight): 100, 100%
conversion upon overnight reaction (PltM [2]): 100%

Cc1cc(O)cc(O)c1 [Compound 9]
% overall conversion (trial 1) (PltM [2]; overnight): 97%
% overall conversion (trial 2) (PltM [2]; overnight): 96%

OCc1cc(O)cc(O)c1 [Compound 11]
preference for bromination versus iodination (PltM [1]): for iodination
% overall conversion (trial 1) (PltM [2]; overnight): 100, 100%
% overall conversion (trial 2) (PltM [2]; overnight): 100, 100%
conversion upon overnight reaction (PltM [2]): 100%
product with wild-type PltM (PltM [2]; overnight, conditions of the K87A analysis (positive control)): yields diCl-11
bromination by PltM (products identified by LC-MS) (PltM [3]; NaBr as halide source (Assay 1c)): Mono-bromination of 11 was observed, but not dibromination
fluorination by PltM (products identified by LC-MS) (PltM [3]; NaF as halide source (Assay 1a)): not dibromination or fluorination

CC(=O)c1c(O)cc(O)cc1O [Compound 15]
% overall conversion (trial 1) (PltM [2]; overnight): 34%
% overall conversion (trial 2) (PltM [2]; overnight): 7%

Nc1cccc(O)c1 [Compound 16]
dibromination by PltM (PltM [1]): dibrominated
preference for bromination versus iodination (PltM [1]): preference for bromination
% overall conversion (trial 1) (PltM [2]; overnight): 100, 100%
% overall conversion (trial 2) (PltM [2]; overnight): 100, 100%
conversion upon overnight reaction (PltM [2]): 100%

Nc1cccc(N)c1 [Compound 18]
% overall conversion (trial 1) (PltM [2]; overnight): 100, 100%
% overall conversion (trial 2) (PltM [2]; overnight): 100, 100%

N[C@@H](Cc1c[nH]c2ccccc12)C(=O)O [Compound 20, L-Trp]
halogenation by PltM (substrate profile) (PltM [3]; tested for chlorination and iodination): not observed

CC(C)(C)NCC(O)c1cc(O)cc(O)c1 (centres unmarked) [Compound 21, terbutaline, reference compound]
iodination by PltM (products identified by LC-MS) (PltM [3]): both mono and di

CC(Cc1ccc(O)cc1)NCC(O)c1cc(O)cc(O)c1 (centres unmarked) [Compound 22, fenoterol, reference compound]
iodination by PltM (products identified by LC-MS) (PltM [3]): mono-iodinated

Oc1ccc(C=Cc2cc(O)cc(O)c2)cc1 [Compound 23, resveratrol]
% overall conversion (trial 1) (PltM [2]; overnight): 24%
% overall conversion (trial 2) (PltM [2]; overnight): 20%
chlorination by PltM (products identified by LC-MS) (PltM [3]): mono-chlorinated
iodination by PltM (products identified by LC-MS) (PltM [3]): mono-iodinated

catechin [Compound 24]
chlorination by PltM (products identified by LC-MS) (PltM [3]): mono-chlorinated
iodination by PltM (products identified by LC-MS) (PltM [3]): mono-iodinated

B1: PltM (Pseudomonas protegens Pf-5) (protein)
chain: MNQYDVIIIGSGIAGALTGAVLAKSGLNVLILDSAQHPRFSVGEAATPESGFLLRLLSKRFDIPEIAYLSHPDKIIQHVGSSACGIKLGFSFAWHQENAPSSPDHLVAPPLKVPEAHLFRQDIDYFALMIALKHGAESRQNIKIESISLNDDGVEVALSNAAPVKAAFIIDAAAQGSPLSRQLGLRTTEGLATDTCSFFTHMLNVKSYEDALAPLSRTRSPIELFKSTLHHIFEEGWLWVIPFNNHPQGTNQLCSIGFQFNNAKYRPTEAPEIEFRKLLKKYPAIGEHFKDAVNAREWIYAPRINYRSVQNVGDRFCLLPQATGFIDPLFSRGLITTFESILRLAPKVLDAARSNRWQREQFIEVERHCLNAVATNDQLVSCSYEAFSDFHLWNVWHRVWLSGSNLGSAFLQKLLHDLEHSGDARQFDAALEAVRFPGCLSLDSPAYESLFRQSCQVMQQAREQARPVAETANALHELIKEHEAELLPLGYSRISNRFILKV
Km [4, 9]: 0.71 ± 0.2 µM
kcat [4, 9]: 0.0317 ± 0.00167 s⁻¹
kcat/Km [4, 9]: 45000 ± 10000 M⁻¹ s⁻¹
Km [4, 10]: (7.6 ± 1.3) × 10^−2 μM
kcat [4, 10]: 2.3 ± 0.1^a min^−1
kcat/Km [4, 10]: 30 ± 5 ^ min^−1μM^−1
Km [5, 9]: (1.1 ± 0.2) × 10^3 μM
kcat [5, 9]: 0.004 ± 0.000333 s⁻¹
kcat/Km [5, 9]: 3.67 ± 0.333 M⁻¹ s⁻¹
Km [5, 10]: 8.4 ± 0.4 µM
kcat [5, 10]: 0.0267 ± 0.00167 s⁻¹
kcat/Km [5, 10]: 3170 ± 167 M⁻¹ s⁻¹
Km [6]: 0.44 ± 0.02 µM
kcat [6]: 0.003 ± 0.000167 s⁻¹
kcat/Km [6]: 6830 ± 333 M⁻¹ s⁻¹
Km [7]: 0.11 ± 0.02 µM
kcat [7]: 0.00667 s⁻¹
kcat/Km [7]: 58300 M⁻¹ s⁻¹
Km [8, 11]: 151 ± 20 µM
kcat [8, 11]: 0.0367 s⁻¹
kcat/Km [8, 11]: 250 M⁻¹ s⁻¹
Km [8, 9]: 151 ± 20 µM
kcat [8, 9]: 0.00783 s⁻¹
kcat/Km [8, 9]: 51.7 M⁻¹ s⁻¹
Km [8, 12]: 1.1 ± 0.3 µM
kcat [8, 12]: 0.00367 s⁻¹
kcat/Km [8, 12]: 3170 M⁻¹ s⁻¹
Km [8, 10]: 1.1 ± 0.3 µM
kcat [8, 10]: 0.00583 s⁻¹
kcat/Km [8, 10]: 5170 M⁻¹ s⁻¹
